# In patent publication US6737383B1, “Herbicidal oxadiazolidines” (priority 1999, dated 2004):
# Columns and labels:
# purple nutsedge = assay: Test B pre/postemergence purple nutsedge; format: in vivo, Cyperus rotundus
# How it was run: (§1)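 Test chemicals in a non-phytotoxic solvent mixture with surfactant were sprayed preemergence onto planted seeds and postemergence onto plants 2 to 18 cm tall (1- to 4-leaf stage). After twelve to sixteen days in a greenhouse, injury was visually rated against untreated controls from 0 (no effect) to 10 (complete control).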
# crabgrass = assay: Test B pre/postemergence crabgrass; format: in vivo, Digitaria sanguinalis
# How it was run: as §1
# wheat = assay: Test B pre/postemergence wheat; format: in vivo, Triticum aestivum
# How it was run: as §1
# bedstraw = assay: Test B pre/postemergence bedstraw; format: in vivo, Galium aparine
# How it was run: as §1
# giant foxtail = assay: Test B pre/postemergence giant foxtail; format: in vivo, Setaria faberii
# How it was run: as §1
# wild oat = assay: Test B pre/postemergence wild oat; format: in vivo, Avena fatua
# How it was run: as §1
# pigweed = assay: Test B pre/postemergence pigweed; format: in vivo, Amaranthus retroflexus
# How it was run: as §1
# cocklebur = assay: Test B pre/postemergence cocklebur; format: in vivo, Xanthium strumarium
# How it was run: as §1
# sugar beet = assay: Test B pre/postemergence sugar beet; format: in vivo, Beta vulgaris
# How it was run: as §1
# morningglory = assay: Test B pre/postemergence morningglory; format: in vivo, Ipomoea hederacea
# How it was run: as §1
# blackgrass = assay: Test B pre/postemergence blackgrass; format: in vivo, Alopecurus myosuroides
# How it was run: as §1
# bamyardgrass = assay: Test B flood test barnyardgrass; format: in vivo, Echinochloa crus-galli
# How it was run: (§2)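 Flood test on plants grown to the 2-leaf stage; treated plants kept in greenhouse twelve to sixteen days, then visually rated against controls on a 0 (no effect) to 10 (complete control) scale.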
# rape = assay: Test B pre/postemergence rape; format: in vivo, Brassica napus
# How it was run: as §1
# corn = assay: Test B pre/postemergence corn; format: in vivo, Zea mays
# How it was run: as §1
# surinam grass = assay: Test B pre/postemergence surinam grass; format: in vivo, Brachiaria decumbens
# How it was run: as §1
# rice = assay: Test B flood test rice; format: in vivo, Oryza sativa
# How it was run: as §2
# [1] = Postemergence, Rate 125 g/ha, scale of 0 to 10 where 0 is no effect and 10 is complete control
# [2] = Preemergence, Rate 62 g/ha, scale 0 to 10 (0 no effect, 10 complete control)
# [3] = Preemergence, Rate 125 g/ha, 0 is no effect, 10 is complete control
# [4] = Preemergence, Rate 250 g/ha, scale 0 to 10, 0 is no effect, 10 is complete control
# [5] = Rate 62 g/ha, Postemergence, scale of 0 to 10 where 0 is no effect and 10 is complete control
# [6] = Rate 250 g/ha, Postemergence, scale 0 to 10, 0 is no effect, 10 is complete control
# [7] = Rate 500 g/ha, Postemergence, scale 0 to 10
# [8] = Preemergence, Rate 500 g/ha, scale 0 to 10 (0 no effect, 10 complete control)
# [9] = Postemergence (flood test species), Rate 125 g/ha, scale of 0 to 10 where 0 is no effect and 10 is complete control
# [10] = Rate 31 g/ha, Postemergence section (flood test species), scale 0 to 10
# [11] = Rate 62 g/ha, Postemergence section, flood test species, scale of 0 to 10 where 0 is no effect and 10 is complete control
# [12] = Rate 250 g/ha, Postemergence (flood test), scale 0 to 10, 0 is no effect, 10 is complete control
smiles,measurement,setting,value
CC(C)N(C(=O)n1oc(=O)n(C)c1=O)c1ccc(Cl)cc1 [Compound 137],Nutsedge plant response rating,purple nutsedge; [1],0
same,Nutsedge plant response rating,purple nutsedge; [2],0
same,Nutsedge plant response rating (0 to 10 scale),purple nutsedge; [3],0
same,Nutsedge plant response rating,purple nutsedge; [4],0
same,Nutsedge plant response rating,purple nutsedge; [5],0
same,"Plant response rating, Nutsedge",purple nutsedge; [6],3
same,Nutsedge plant response rating,purple nutsedge; [7],4
same,Crabgrass plant response rating,crabgrass; [1],8
same,Crabgrass plant response rating,crabgrass; [2],8
same,Crabgrass plant response rating (0 to 10 scale),crabgrass; [3],10
same,Crabgrass plant response rating,crabgrass; [4],10
same,Crabgrass plant response rating,crabgrass; [8],10
same,Crabgrass plant response rating,crabgrass; [5],7
same,"Plant response rating, Crabgrass",crabgrass; [6],9
same,Crabgrass plant response rating,crabgrass; [7],9
same,Wheat plant response rating,wheat; [1],0
same,Wheat plant response rating,wheat; [2],0
same,Wheat plant response rating (0 to 10 scale),wheat; [3],4
same,Wheat plant response rating,wheat; [4],5
same,Wheat plant response rating,wheat; [8],5
same,Wheat plant response rating,wheat; [5],0
same,"Plant response rating, Wheat",wheat; [6],5
same,Wheat plant response rating,wheat; [7],6
same,Bedstraw plant response rating,bedstraw; [1],8
same,Bedstraw plant response rating,bedstraw; [2],4
same,Bedstraw plant response rating (0 to 10 scale),bedstraw; [3],7
same,Bedstraw plant response rating,bedstraw; [4],7
same,Bedstraw plant response rating,bedstraw; [8],10
same,Bedstraw plant response rating,bedstraw; [5],4
same,"Plant response rating, Bedstraw",bedstraw; [6],8
same,Giant foxtail plant response rating,giant foxtail; [1],8
same,Giant foxtail plant response rating,giant foxtail; [2],8
same,Giant foxtail plant response rating (0 to 10 scale),giant foxtail; [3],9
same,Giant foxtail plant response rating,giant foxtail; [4],10
same,Giant foxtail plant response rating,giant foxtail; [8],10
same,Giant foxtail plant response rating,giant foxtail; [5],8
same,"Plant response rating, Giant foxtail",giant foxtail; [6],9
same,Giant foxtail plant response rating,giant foxtail; [7],9
same,Wild oats plant response rating,wild oat; [1],2
same,Wild oats plant response rating,wild oat; [2],5
same,Wild oats plant response rating (0 to 10 scale),wild oat; [3],8
same,Wild oats plant response rating,wild oat; [4],9
same,Wild oats plant response rating,wild oat; [8],10
same,Wild oats plant response rating,wild oat; [5],1
same,"Plant response rating, Wild oats",wild oat; [6],4
same,Wild oats plant response rating,wild oat; [7],5
same,Redroot pigweed plant response rating,pigweed; [1],4
same,Redroot pigweed plant response rating,pigweed; [2],9
same,Redroot pigweed plant response rating (0 to 10 scale),pigweed; [3],10
same,Redroot pigweed plant response rating,pigweed; [4],10
same,Redroot pigweed plant response rating,pigweed; [8],10
same,Redroot pigweed plant response rating,pigweed; [5],2
same,"Plant response rating, Redroot pigweed",pigweed; [6],5
same,Redroot pigweed plant response rating,pigweed; [7],6
same,Cocklebur plant response rating,cocklebur; [1],0
same,Cocklebur plant response rating,cocklebur; [2],0
same,Cocklebur plant response rating (0 to 10 scale),cocklebur; [3],0
same,Cocklebur plant response rating,cocklebur; [4],0
same,Cocklebur plant response rating,cocklebur; [8],0
same,Cocklebur plant response rating,cocklebur; [5],0
same,"Plant response rating, Cocklebur",cocklebur; [6],3
same,Cocklebur plant response rating,cocklebur; [7],4
same,Sugarbeets plant response rating,sugar beet; [1],3
same,Sugarbeets plant response rating,sugar beet; [2],6
same,Sugarbeets plant response rating (0 to 10 scale),sugar beet; [3],10
same,Sugarbeets plant response rating,sugar beet; [4],10
same,Sugarbeets plant response rating,sugar beet; [8],10
same,Sugarbeets plant response rating,sugar beet; [5],3
same,"Plant response rating, Sugarbeets",sugar beet; [6],5
same,Sugarbeets plant response rating,sugar beet; [7],6
same,Morningglory plant response rating,morningglory; [1],7
same,Morningglory plant response rating,morningglory; [2],0
same,Morningglory plant response rating (0 to 10 scale),morningglory; [3],0
same,Morningglory plant response rating,morningglory; [4],0
same,Morningglory plant response rating,morningglory; [8],1
same,Morningglory plant response rating,morningglory; [5],7
same,"Plant response rating, Morningglory",morningglory; [6],7
same,Morningglory plant response rating,morningglory; [7],8
same,Blackgrass plant response rating,blackgrass; [1],6
same,Blackgrass plant response rating,blackgrass; [2],7
same,Blackgrass plant response rating (0 to 10 scale),blackgrass; [3],9
same,Blackgrass plant response rating,blackgrass; [4],9
same,Blackgrass plant response rating,blackgrass; [8],10
same,Blackgrass plant response rating,blackgrass; [5],5
same,"Plant response rating, Blackgrass",blackgrass; [6],8
same,Blackgrass plant response rating,blackgrass; [7],8
same,Barnyardgrass plant response rating,bamyardgrass; [9],0
same,Barnyardgrass plant response rating,bamyardgrass; [10],0
same,Barnyardgrass plant response rating,bamyardgrass; [11],0
same,"Plant response rating, Barnyardgrass",bamyardgrass; [12],0
same,Rape plant response rating,rape; [2],0
same,Rape plant response rating (0 to 10 scale),rape; [3],4
same,Rape plant response rating,rape; [4],10
same,Rape plant response rating,rape; [8],10
same,Rape plant response rating,rape; [5],0
same,"Plant response rating, Rape",rape; [6],6
same,Rape plant response rating,rape; [7],7
same,Corn plant response rating,corn; [1],0
same,Corn plant response rating,corn; [2],0
same,Corn plant response rating (0 to 10 scale),corn; [3],0
same,Corn plant response rating,corn; [4],0
same,Corn plant response rating,corn; [8],4
same,Corn plant response rating,corn; [5],0
same,"Plant response rating, Corn",corn; [6],3
same,Corn plant response rating,corn; [7],5
same,B. signalgrass plant response rating,surinam grass; [1],4
same,B. signalgrass plant response rating,surinam grass; [2],3
same,B. signalgrass plant response rating (0 to 10 scale),surinam grass; [3],5
same,B. signalgrass plant response rating,surinam grass; [4],7
same,B. signalgrass plant response rating,surinam grass; [8],9
same,B. signalgrass plant response rating,surinam grass; [5],0
same,"Plant response rating, B. signalgrass",surinam grass; [6],5
same,B. signalgrass plant response rating,"surinam grass; Rate 500 g/ha, Postemergence, scale of 0 to 10 where 0 is no effect and 10 is complete control",8
same,Rice plant response rating,rice; [9],0
same,Rice plant response rating,rice; [10],0
same,Rice plant response rating,rice; [11],0
same,"Plant response rating, Rice",rice; [12],0
